Laboratory results as given in US7273877B2, “5-substituted-4-[(substituted phenyl) amino]-2-pyridone derivatives” (Warner-Lambert Company, LLC, priority 2003, dated 2007).

How the values were obtained:
[1] = test system: phosphorylation of MAP kinase (ERK) in murine colon 26 (C26) carcinoma cells; assay: Cellular inhibition of ERK phosphorylation, C26ELSA (pERK ELISA format); type: cell-based; details: Mus musculus, 1 h, C26 cells treated with test compound for one hour at 37° C.
Experimental: (§1) MEK inhibitors were evaluated by determining their ability to inhibit phosphorylation of MAP kinase (ERK) in murine colon 26 (C26) carcinoma cells. Since ERK1 and ERK2 represent the only known substrates for MEK1and MEK2, the measurement of inhibition of ERK phosphorylation in cells provides direct read out of cellular MEK inhibition by the compounds of the invention. Detection of phosphorylation of ERK was carried out either by Western blot or ELISA format. Briefly, the assays involve treatment of exponentially growing C26 cells with varying concentrations of the test compound (or vehicle control) for one hour at 37° C. For Western blot assay, cells were rinsed free of compound/vehicle and lysed in a solution containing 70 mM NaCl, 50 mM glycerol phosphate, 10 mM HEPES, pH 7.4, 1% Triton X-100, 1 mM Na3VO4, 100 μM PMSF, 10 μM leupeptin and 10 μM pepstatin. Supernatants were then subjected to gel electrophoresis and hybridized to a primary antibody recognizing dually phosphorylated ERK1 and ERK2. To evaluate total MAPK levels, blots were subsequently ‘stripped’ and re-probed with a 1:1 mixture of polyclonal antibodies recognizing unphosphorylated ERK1 and ERK2. For pERK ELISA assay, pERK TiterZyme Enzyme immunometric Assay kits were acquired from Assay Designs, Inc (Ann Arbor, Mich.). Briefly, cells were harvested in lysis solution containing 50 mM β-glycerophosphate, 10 mM HEPES, ph7.4, 70 mM NaCl, 2 mM EDTA and 1% SDS and protein lysates were diluted 1:15 with supplied Assay buffer prior to the execution of the assay. The subsequent steps were carried out essentially as recommended by the manufacturer.
(§2) The inhibition data generated by the above protocols is disclosed in Table I. If several concentrations of inhibitor were tested, IC50 values (the concentration which gives 50% inhibition) were determined graphically from the dose response curve for % inhibition. Otherwise, percent inhibitions at measured concentrations are reported.

[2] = test system: phosphorylation of MAP kinase (ERK) in murine colon 26 (C26) carcinoma cells; assay: Cellular inhibition of ERK phosphorylation, C26CPA1; type: cell-based; details: Mus musculus, 1 h; C26 cells treated with test compound for one hour at 37° C.
Experimental: as §1, §2

In the case of `O=C(NCCO)c1c[nH]c(=O)cc1Nc1ccc(I)cc1F` [Example 11, 4-(2-Fluoro-4-iodoanilino)-N-(2-hydroxyethyl)-6-oxo-1,6-dihydro-3-pyridinecarboxamide], the IC50 [1] is reported as no less than 5000 nM and the melting point is reported as 254 to 256 °C.
In the case of `Cc1ccc(Nc2cc(=O)n(C)cc2C(N)=O)c(F)c1` [Example 37, 4-(2-Fluoro-4-methylanilino)-1-methyl-6-oxo-1,6-dihydro-3-pyridinecarboxamide], the IC50 [1] is reported as no less than 5000 nM and the melting point is reported as 285 to 288 °C.
With `Cn1cc(C(=O)NCCO)c(Nc2ccc(CCCO)cc2F)cc1=O` [Example 7, 4-[2-Fluoro-4-(3-hydroxypropyl)anilino]-N-(2-hydroxyethyl)-1-methyl-6-oxo-1,6-dihydro-3-pyridinecarboxamide] the IC50 [1] was no less than 5000 nM and the melting point was 177 to 179 °C.
For `O=C(NCCCO)c1c[nH]c(=O)cc1Nc1ccc(I)cc1F` [Example 14, 4-(2-Fluoro-4-iodoanilino)-N-(3-hydroxypropyl)-6-oxo-1,6-dihydro-3-pyridinecarboxamide], the IC50 [1] was no less than 5000 nM and the melting point was 253 to 255 °C.
Compound `CCOC(=O)c1cn(C)c(=O)cc1Nc1ccc2c(c1)CCC2` [Example 58, 4-(Indan-5-ylamino)-1-methyl-6-oxo-1,6-dihydro-pyridine-3-carboxylic acid ethyl ester] has an IC50 [1] of 3900 nM and a melting point of 141 to 143 °C.
With `NC(=O)c1cn(CC(O)CO)c(=O)cc1Nc1ccc(I)cc1F` (stereo not shown) [Example 31, 1-(2,3-Dihydroxypropyl)-4-(2-fluoro-4-iodoanilino)-6-oxo-1,6-dihydro-3-pyridinecarboxamide] the IC50 [2] was 1410 nM and the melting point was 210 to 213 °C.
`C#Cc1ccc(Nc2cc(=O)n(C)cc2C(N)=O)c(F)c1` [Example 17, 4-(4-Ethynyl-2-fluoroanilino)-1-methyl-6-oxo-1,6-dihydro-3-pyridinecarboxamide] gave an IC50 [1] of 21 nM and a melting point of 269 to 272 °C.
Work on `Cn1cc(C(=O)NC(CO)(CO)CO)c(Nc2ccc(I)cc2F)cc1=O` [Example 47, 4-(2-Fluoro-4-iodoanilino)-N-[2-hydroxy-1,1-bis(hydroxymethyl)ethyl]-1-methyl-6-oxo-1,6-dihydro-3-pyridinecarboxamide] yielded an IC50 [1] of no less than 5000 nM and a melting point of 100 to 105 °C.
With `NC(=O)c1c[nH]c(=O)cc1Nc1ccc(I)cc1F` [Example 19, 4-(2-Fluoro-4-iodoanilino)-6-oxo-1,6-dihydro-3-pyridinecarboxamide] the IC50 [1] was 110 nM and the melting point was 320 to 325 °C.
In the case of `CNC(=O)c1cn(C)c(=O)cc1Nc1ccc(I)cc1F` [Example 51, 4-(2-Fluoro-4-iodoanilino)-N,1-dimethyl-6-oxo-1,6-dihydro-3-pyridinecarboxamide], the IC50 [1] is reported as no less than 5000 nM and the melting point is reported as 252 to 254 °C.
For `Cn1cc(C(=O)NCCCO)c(Nc2ccc3ccccc3c2)cc1=O` [Example 42, N-(3-Hydroxypropyl)-1-methyl-4-(2-naphthylamino)-6-oxo-1,6-dihydro-3-pyridinecarboxamide], the IC50 [1] was 93 nM and the melting point was 78 to 83 °C.
Compound `Cn1cc(C(N)=O)c(Nc2ccc(CCCO)cc2F)cc1=O` [Example 21, 4-[2-Fluoro-4-(3-hydroxypropyl)anilino}-1-methyl-6-oxo-1,6-dihydro-3-pyridinecarboxamide] has an IC50 [1] of 630 nM and a melting point of 214 to 216 °C.
Compound `Cn1cc(C(=O)OCC(N)(CO)CO)c(Nc2ccc(I)cc2F)cc1=O` [Example 48, 2-Amino-3-hydroxy-2-(hydroxymethyl)propyl-4-(2-fluoro-4-iodoanilino)-1-methyl-6-oxo-1,6-dihydro-3-pyridinecarboxylate] has an IC50 [1] of no less than 5000 nM and a melting point of 117 to 122 °C.
Work on `Cn1cc(C(N)=O)c(Nc2ccc(Br)cc2F)cc1=O` [Example 40, 4-(4-Bromo-2-fluoroanilino)-1-methyl-6-oxo-1,6-dihydro-3-pyridinecarboxamide] yielded an IC50 [1] of 120 nM and a melting point of 282 to 284 °C.
Work on `CCOC(=O)c1cn(C)c(=O)cc1Nc1ccc(C)c(C)c1` [Example 57, 4-(3,4-Dimethyl-phenylamino)-1-methyl-6-oxo-1,6-dihydro-pyridine-3-carboxylic acid ethyl ester] yielded an IC50 [1] of no less than 5000 nM and a melting point of 153 to 154 °C.
With `Cn1cc(C(N)=O)c(Nc2ccc(Cl)c(Cl)c2Cl)cc1=O` [Example 67, 1-Methyl-6-oxo-4-(2,3,4-trichloro-phenylamino)-1,6-dihydro-pyridine-3-carboxylic acid amide] the IC50 [2] was 76 nM.
`Cn1cc(C(N)=O)c(Nc2ccc(I)cc2F)cc1=O` [Example 10, 4-(2-Fluoro-4-iodoanilino)-1-methyl-6-oxo-1,6-dihydro-3-pyridinecarboxamide] gave an IC50 [1] of 4.4 nM.
Work on `Cn1cc(C(=O)NCCCO)c(Nc2ccc(I)cc2F)cc1=O` [Example 5, 4-(2-Fluoro-4-iodoanilino)-N-(3-hydroxypropyl)-1-methyl-6-oxo-1,6-dihydro-3-pyridinecarboxamide] yielded an IC50 [2] of 60 nM and a melting point of 81 to 86 °C.
Compound `C=CCn1cc(C(N)=O)c(Nc2ccc(I)cc2F)cc1=O` [Example 30, 1-Allyl-4-(2-fluoro-4-iodoanilino)-6-oxo-1,6-dihydro-3-pyridinecarboxamide] has an IC50 [1] of 430 nM and a melting point of 215 to 217 °C.
`Cn1cc(C(=O)NOCCO)c(Nc2ccc(I)cc2F)cc1=O` [Example 1, 4-(2-Fluoro-4-iodoanilino)-N-(2-hydroxyethoxy)-1-methyl-6-oxo-1,6-dihydro-3-pyridinecarboxamide] showed an IC50 [2] of 43.8 nM, an IC50 [1] of 4.9 nM and a melting point of 148 to 151 °C.
With `CSc1ccc(Nc2cc(=O)n(C)cc2-c2nnc(NCCO)o2)c(F)c1` [Example 90, 4-(2-Fluoro-4-methylsulfanyl-phenylamino)-5-[5-(2-hydroxy-ethylamino)[1,3,4]oxadiazol-2-yl]-1-methyl-1H-pyridin-2-one] the IC50 [1] was greater than 5000 nM.
`CSc1ccc(Nc2cc(=O)n(C)cc2C(=O)NC(CO)CO)c(F)c1` [Example 89, 4-(2-Fluoro-4-methylsulfoanyl-phenylamino)-1-methyl-6-oxo-1,6, dihydro-pyridine-3-carboxylic acid (2-hydroxy-1-hydroxymethyl-ethyl)-amide] showed an IC50 [2] of 2820 nM.
For `Cn1cc(C(=O)NCCCO)c(Nc2ccc(CCCO)cc2F)cc1=O` [Example 9, 4-[2-Fluoro-4-(3-hydroxypropyl)anilino]-N-(3-hydroxypropyl)-1-methyl-6-oxo-1,6-dihydro-3-pyridinecarboxamide], the IC50 [1] was no less than 5000 nM and the melting point was 161 to 164 °C.
`CSc1ccc(Nc2cc(=O)n(C)cc2-c2nnc(NCC(O)CO)o2)c(F)c1` (stereo not shown) [Example 92, 5-[5-(2,3-dihydroxy-propylamino)-[1,3,4]oxadiazol-2-yl]-4-(2-fluoro-4-methylsulfanyl-phenylamino)-1-methyl-1H-pyridine-2-one] gave an IC50 [1] of 1240 nM.
In the case of `O=C(O)Cn1cc(C(=O)NCCCO)c(Nc2ccc(I)cc2F)cc1=O` [Example 24, (4-(2-Fluoro-4-iodoanilino)-5-{[(3-hydroxypropyl)amino]carbonyl}-2-oxo-1(2H)-pyridinyl)acetic acid], the IC50 [1] is reported as no less than 5000 nM and the melting point is reported as 199 to 202 °C.
